Measurements from US11492405B2, “Reducing systemic regulatory t cell levels or activity for treatment of disease and injury of the CNS” (Yeda Research and Development Co. Ltd, priority 2014, dated 2022).
Entries after “also recorded” stand apart in the source; their conditions may differ.

What was measured:
Assay type in all cases: in vivo, mouse
5XFAD AD-Tg mice [1] = assay: Immune cell / mo-Mϕ infiltration of brain in 5XFAD AD-Tg mice (flow cytometry, BM chimeras)
Method: Tissue processing and immunohistochemistry were performed on paraffin embedded sectioned mouse (6 μm thick) and human (10 μm thick) brains. For human ICAM-1 staining, primary mouse anti-ICAM (1:20 Abcam; ab2213) antibody was used. Slides were incubated for 10 min with 3% H2O2, and a secondary biotin-conjugated anti-mouse antibody was used, followed by biotin/avidin amplification with Vectastain ABC kit (Vector Laboratories). Subsequently, 3,3′-diaminobenzidine (DAB substrate) (Zytomed kit) was applied; slides were dehydrated and mounted with xylene-based mounting solution. For tissue stainings, mice were transcardially perfused with PBS prior to tissue excision and fixation. CP tissues were isolated under a dissecting microscope (Stemi DV4; Zeiss) from the lateral, third, and fourth ventricles of the brain. For whole mount CP staining, tissues were fixated with 2.5% paraformaldehyde (PFA) for 1 hour at 4° C., and subsequently transferred to PBS containing 0.05% sodium azide. Prior to staining, the dissected tissues were washed with PBS and blocked (20% horse serum, 0.3% Triton X-100, and PBS) for 1 h at room temperature. Whole mount staining with primary antibodies (in PBS containing 2% horse serum and 0.3% Triton X-100), or secondary antibodies, was performed for 1 h at room temperature. Each step was followed by three washes in PBS. The tissues were applied to slides, mounted with Immu-mount (9990402, from Thermo Scientific), and sealed with cover-slips. For staining of sectioned brains, two different tissue preparation protocols (paraffin embedded or microtomed free-floating sections) were applied, as previously described (Baruch et al, 2013; Kunis et al, 2013). The following primary antibodies were used: mouse anti-Aβ (1:300, Covance, #SIG-39320); rabbit anti-GFP (1:100, MBL, #598); rat anti-CD68 (1:300, eBioscience, #14-0681); rat anti-ICAM-1 (1:200, Abcam, #AB2213); goat anti-GFP (1:100, Abcam, #ab6658); rabbit anti-IBA-1 (1:300, Wako, #019-19741); goat anti-IL-10 (1:20, R&D systems, #AF519); rat anti-Foxp3 (1:20, eBioscience, #13-5773-80); rabbit anti-CD3 (1:500, Dako, #IS503); mouse anti-ZO-1, mouse anti-E-Cahedrin, and rabbit anti-Claudin-1 (all 1:100, Invitrogen, #33-9100, #33-4000, #51-9000); rabbit anti-GFAP (1:200, Dako, #Z0334). […] Microscopic analysis, was performed using a fluorescence microscope (E800; Nikon) or laser-scanning confocal microscope (Carl Zeiss, Inc.). The fluorescence microscope was equipped with a digital camera (DXM 1200F; Nikon), and with either a 20×NA 0.50 or 40×NA 0.75 objective lens (Plan Fluor; Nikon). […] For quantification of staining intensity, total cell and background staining was measured using ImageJ software (NIH), and intensity of specific staining was calculated, as previously described (Burgess et al, 2010). […]

5XFAD AD-Tg mice [2] = assay: RT-qPCR of choroid plexus (CP) in 5XFAD AD-Tg mice
Method: Total RNA of the hippocampal dentate gyrus (DG) was extracted with TRI Reagent (Molecular Research Center) and purified from the lysates using an RNeasy Kit (Qiagen). Total RNA of the choroid plexus was extracted using an RNA MicroPrep Kit (Zymo Research). mRNA (1 μg) was converted into cDNA using a High Capacity cDNA Reverse Transcription Kit (Applied Biosystems). The expression of specific mRNAs was assayed using fluorescence-based quantitative real-time PCR (RT-qPCR). RT-qPCR reactions were performed using Fast-SYBR PCR Master Mix (Applied Biosystems). Quantification reactions were performed in triplicate for each sample using the standard curve method. Peptidylprolyl isomerase A (ppia) was chosen as a reference (housekeeping) gene. The amplification cycles were 95° C. for 5 s, 60° C. for 20 s, and 72° C. for 15 s. […] For ifn-γ and ppia gene analysis, the cDNA was pre-amplified in 14 PCR cycles with non-random PCR primers, thereby increasing the sensitivity of the subsequent real-time PCR analysis, according to the manufacturer's protocol (PreAmp Master Mix Kit; Applied Biosystems). mRNA expression was determined using TaqMan RT-qPCR, according to the manufacturer's instructions (Applied Biosystems). All RT-qPCR reactions were performed and analyzed using StepOne software V2.2.2 (Applied Biosystems). […]

5XFAD AD-Tg mice [3] = assay: RT-qPCR of hippocampus / brain parenchyma in 5XFAD AD-Tg mice
Method: Total RNA of the hippocampal dentate gyrus (DG) was extracted with TRI Reagent (Molecular Research Center) and purified from the lysates using an RNeasy Kit (Qiagen). Total RNA of the choroid plexus was extracted using an RNA MicroPrep Kit (Zymo Research). mRNA (1 μg) was converted into cDNA using a High Capacity cDNA Reverse Transcription Kit (Applied Biosystems). The expression of specific mRNAs was assayed using fluorescence-based quantitative real-time PCR (RT-qPCR). RT-qPCR reactions were performed using Fast-SYBR PCR Master Mix (Applied Biosystems). Quantification reactions were performed in triplicate for each sample using the standard curve method. Peptidylprolyl isomerase A (ppia) was chosen as a reference (housekeeping) gene. The amplification cycles were 95° C. for 5 s, 60° C. for 20 s, and 72° C. for 15 s. At the end of the assay, a melting curve was constructed to evaluate the specificity of the reaction. For ifn-γ and ppia gene analysis, the cDNA was pre-amplified in 14 PCR cycles with non-random PCR primers, thereby increasing the sensitivity of the subsequent real-time PCR analysis, according to the manufacturer's protocol (PreAmp Master Mix Kit; Applied Biosystems). mRNA expression was determined using TaqMan RT-qPCR, according to the manufacturer's instructions (Applied Biosystems). All RT-qPCR reactions were performed and analyzed using StepOne software V2.2.2 (Applied Biosystems). The following TaqMan Assays-on-Demand™ probes were used: Mm02342430_g1 (ppia) and Mm01168134_m1 (ifn-γ).
For all other genes examined, the following primers were used: […]

[4] = AD-Tg/Foxp3-DTR+ mice, 3 weeks after last DTx injection
[5] = weekly-GA vs untreated AD-Tg mice, age 6 m

| Substance | Foxp3+ Tregs among CD4+ T cells accumulated within the brain (5XFAD AD-Tg mice [1]; [4]) | numbers of CD45high/CD11bhigh mo-Mϕ and CD4+ T cells in brain parenchyma (5XFAD AD-Tg mice [1]; [4]) | CP mRNA expression of leukocyte trafficking molecules (icam1, cxcl10, ccl2) (5XFAD AD-Tg mice [2]; AD-Tg/DTR+ vs DTx-treated AD-Tg/DTR− littermates, 1 day after last DTx injection) | foxp3 and il10 mRNA expression in hippocampus (5XFAD AD-Tg mice [3]; [4]) | mRNA expression of pro-inflammatory cytokines il-12p40 and tnf-α in brain parenchyma (5XFAD AD-Tg mice [3]; [4]) | numbers of CD11bhighCD45high-expressing cells in hippocampus (5XFAD AD-Tg mice [1]; 2nd week of weekly-GA regimen, non-chimeric AD-Tg mice) | homing of GFP+ mo-Mϕ to the CP and adjacent ventricular spaces (5XFAD AD-Tg mice [1]; weekly-GA vs vehicle, AD-Tg/CX3CR1GFP/+ BM chimeras) | CP epithelial expression of leukocyte trafficking molecules (icam1, cxcl10, ccl2) (5XFAD AD-Tg mice [2]; weekly-GA, end of 1st or 4th week) | neuroinflammation (hippocampal mRNA) (5XFAD AD-Tg mice [3]; weekly-GA 100 μg s.c. over 4 weeks, 5XFAD AD-Tg mice) | hippocampal mRNA expression of anti-inflammatory cytokines IL-10 and TGF-β (5XFAD AD-Tg mice [3]; [5]) | hippocampal mRNA expression of neurotropic factors IGF-1 and BDNF (5XFAD AD-Tg mice [3]; [5]) | hippocampal mRNA expression of pro-inflammatory cytokines TNF-α, IL-1β and IL-12p40 (5XFAD AD-Tg mice [3]; [5]) |
| --- | --- | --- | --- | --- | --- | --- | --- | --- | --- | --- | --- | --- |
| Diphtheria toxin [DTx] | marked enrichment | increased numbers; also recorded: elevated numbers | elevated mRNA expression | increased expression | reduced mRNA expression levels | – | – | – | – | – | – | – |
| Glatiramer acetate [GA] | – | – | – | – | – | increased numbers | increased homing | upregulated | reduced neuroinflammation | elevation | elevation | reduced expression |
